Results taken from patent US20090182133A1 (priority 2005, published 2009).
“Also recorded” adds a separate entry of the source. Like-named read-outs stand apart in the source and are kept apart here.

Key:
SARS 3CL proteinase [1] = target: T1, SARS 3CL proteinase (Severe acute respiratory syndrome coronavirus, UniProt P0C6X7); test: biochemical; type: binding, SARS-CoV
HCV 3CL proteinase = HCV 3CL proteinase (Human coronavirus 229E, UniProt P0C6X1); test: biochemical; type: binding, common cold virus (HCoV-229E antigenic type)
Chain of HCV 3CL proteinase (P0C6X1 2966-3267 limits assumed): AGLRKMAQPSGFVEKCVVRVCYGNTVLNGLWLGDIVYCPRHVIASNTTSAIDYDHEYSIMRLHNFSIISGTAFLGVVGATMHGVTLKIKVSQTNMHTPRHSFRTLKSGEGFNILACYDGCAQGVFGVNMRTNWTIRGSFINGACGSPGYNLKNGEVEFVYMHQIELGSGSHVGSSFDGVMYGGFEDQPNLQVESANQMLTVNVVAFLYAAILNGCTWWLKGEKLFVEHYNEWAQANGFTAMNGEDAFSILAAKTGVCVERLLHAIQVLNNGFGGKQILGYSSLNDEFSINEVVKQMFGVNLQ

SARS 3CL proteinase [2] = target: T1, SARS 3CL proteinase; test: biochemical; set-up: species or system SARS-CoV

| Compound | Kd (SARS 3CL proteinase [1]) [µM] | coupling/affinity with SARS 3CL (in words) (SARS 3CL proteinase [1]) | Kd (HCV 3CL proteinase) [µM] | affinity with HCV 3CL proteinases (in words) (HCV 3CL proteinase) | IC50 (SARS 3CL proteinase [2]) [µM] | Kd (SARS 3CL proteinase [1]; read-out: KD SARS 3CL) [µM] | Kd (HCV 3CL proteinase; read-out: KD HCV 3CL) [µM] | melting point [°C] |
| --- | --- | --- | --- | --- | --- | --- | --- | --- |
| C[C@H]1O[C@@H](Oc2c(-c3ccc(O)c(O)c3)oc3cc(O)cc(O)c3c2=O)[C@H](O)[C@@H](O)[C@H]1O [IA-4, Quercetin-3-O-β-D-fucopyranoside] | 104 | couple strongly; also recorded: weaker affinity | 5.75 | high affinity | 24.1 | – | – | – |
| O=c1c(O[C@@H]2OC[C@@H](O)[C@@H](O)[C@@H]2O)c(-c2ccc(O)c(O)c2)oc2cc(O)cc(O)c12 [IA-3, Quercetin-3-O-β-D-arabinopyranoside] | 13.2 | couple strongly | 3.76 | high affinity | 31.6 | – | – | – |
| O=c1c(O[C@@H]2O[C@H](CO)[C@@H](O)[C@H](O)[C@H]2O)c(-c2ccc(O)c(O)c2)oc2cc(O)cc(O)c12 [IA-1, Quercetin-3-O-β-D-glucopyranoside] | – | – | 28.8 | weaker affinity | – | – | – | – |
| O=c1c(OCC2COc3ccccc3O2)c(-c2cc(O)cc(O)c2)oc2cc(O)ccc12 (stereo not drawn) [IB-4, 3-(2,3-dihydro-benzo[1,4]dioxan-2-yl-methoxy)-3′,5′,7-trihydroxy-flavonol] | – | couple strongly | – | high affinity | – | 16.8 | 2.6 | – |
| O=c1c(OC2CCCCC2)c(-c2ccc(O)c(O)c2)oc2cc(O)ccc12 [IB-1, 3-O-cyclohexyl-3′,4′,7-trihydroxy-flavonol] | 33.7 | couple strongly | 3.52 | high affinity | 33.1 | – | – | 98 to 100 |
| O=c1c(OC2CCCCCC2)c(-c2ccc(O)c(O)c2)oc2cc(O)ccc12 [IB-3, 3-O-cycloheptyl-3′,4′,7-trihydroxy-flavonol] | 33.5 | couple strongly | 1.51 | high affinity | – | – | – | 68 to 71 |
